Data taken from article PMC11703214 (bioRxiv, 2024).

Columns and labels:
Format in all cases: cell-based
gACh3.0 = assay: Fluorescence imaging; conditions: read-out: EC50 (μM), normalized dose-response curves, HEK293T; n = 3
iAChSnFR = assay: Fluorescence imaging; conditions: read-out: EC50 (μM), normalized dose-response curves, HEK293T; n = 3
G protein pathway = assay: Luciferase complementation assay; conditions: ACh 0.1 nM to 100 μM
β-arrestin pathway = assay: Tango assay; conditions: ACh 0.01 nM to 100 μM

Molecule	EC50 (gACh3.0)	EC50 (iAChSnFR)	coupling to G protein pathway (G protein pathway)	coupling to β-arrestin pathway (β-arrestin pathway)
CC(=O)OCC[N+](C)(C)C [ACh, acetylcholine]	2.2 µM	8.8 µM	–	–
wild-type human M3R: wild-type human type 3 muscarinic ACh receptor, positive control for downstream coupling	–	–	robust coupling	robust coupling
